Read-outs that look alike come from different tables or passages of the source.
Tests used:
[1] = target: T1, collagenase of the human monocytic stock U937 (Homo sapiens, UniProt P03956); assay: Activity on collagenase; assay type: biochemical; conditions: radiomarked collagen, 27° C., 16 hours; read-out: C150 (nM) collagenase
T1 construct: the collagenase of the human monocytic stock U937; endogenous in cells; host or cells: U937 human monocytic cell line
T1 sequence (P03956 100-469): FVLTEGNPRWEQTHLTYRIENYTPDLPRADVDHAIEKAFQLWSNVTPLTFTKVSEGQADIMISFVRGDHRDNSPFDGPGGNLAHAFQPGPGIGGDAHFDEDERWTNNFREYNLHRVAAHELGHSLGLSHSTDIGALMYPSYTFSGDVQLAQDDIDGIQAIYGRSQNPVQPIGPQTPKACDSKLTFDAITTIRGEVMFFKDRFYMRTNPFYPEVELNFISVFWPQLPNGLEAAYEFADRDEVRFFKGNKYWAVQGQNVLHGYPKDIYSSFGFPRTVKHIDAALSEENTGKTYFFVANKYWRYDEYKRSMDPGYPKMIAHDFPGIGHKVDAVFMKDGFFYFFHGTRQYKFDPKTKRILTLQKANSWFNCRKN
Procedure: The collagenase was incubated at 27° C. for 16 hours with radiomarked collagen, and its activity was determined by the release of soluble peptides produced by the enzymatic breakdown of the collagen. The inhibiting concentration C150 for each compound was determined by measurement of the activity of the enzyme in the presence of the inhibitor at a concentration ranging between 10^−7 and 10^−12 M (the inhibitor is dissolved at a concentration of 10^−2 M in DMSO, then diluted successively by tenths in the buffer: Tris, HCl 150 mM, pH 7.5; NaCl 0.15 M; CaCl2 10 mM).

[2] = target: 92 kDa gelatinase of human origin (Homo sapiens, UniProt P14780); assay: Activity on gelatinase, radiomarked gelatin; assay type: biochemical; conditions: for IC50: test performed with radiomarked gelatin, read-out: C150 (nM) gelatinase 92 kDa*; for gelatinase 92 kDa* (in %): radiomarked gelatin, concentration not given
92 kDa gelatinase of human origin, sequence (P14780 94-707): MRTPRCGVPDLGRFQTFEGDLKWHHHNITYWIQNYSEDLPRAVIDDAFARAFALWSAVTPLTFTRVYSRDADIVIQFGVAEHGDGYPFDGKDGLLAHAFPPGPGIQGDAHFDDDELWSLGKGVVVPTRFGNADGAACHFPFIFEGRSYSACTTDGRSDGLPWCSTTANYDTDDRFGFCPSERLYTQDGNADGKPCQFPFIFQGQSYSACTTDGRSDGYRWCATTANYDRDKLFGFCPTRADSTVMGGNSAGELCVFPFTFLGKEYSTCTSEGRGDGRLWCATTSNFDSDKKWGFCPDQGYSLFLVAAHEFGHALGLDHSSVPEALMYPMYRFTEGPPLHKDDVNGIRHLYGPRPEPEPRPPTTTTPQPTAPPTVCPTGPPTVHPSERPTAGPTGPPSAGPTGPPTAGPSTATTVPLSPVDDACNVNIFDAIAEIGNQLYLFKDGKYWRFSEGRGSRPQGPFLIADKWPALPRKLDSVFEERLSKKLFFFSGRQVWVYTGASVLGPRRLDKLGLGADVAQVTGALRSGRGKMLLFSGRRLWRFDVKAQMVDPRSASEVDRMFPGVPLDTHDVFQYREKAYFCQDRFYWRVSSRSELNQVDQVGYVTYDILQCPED
Procedure: The anti-gelatinase activity of the compounds according to the invention also was determined on 92 kDa or 72 kDa gelatinase of human origin, in accordance with the operating mode described by Harris, E. D., Krane, S. M.; (Biochem. Biophys. Acta, 258, 566-576, 1972).
The gelatinase was incubated at 37° C. for 16 hours with radiomarked gelatin, and its activity was determined by the release of the soluble peptides produced by the enzymatic breakdown of the gelatin. The inhibiting concentration C150 for each compound was determined by measurement of the activity of the enzyme in the presence of the inhibitor at a concentration ranging between 10^−7 and 10^−12 M (the inhibitor is dissolved in the same manner as for collagenase).

[3] = system: release of TNF from the peritoneal macrophages of mice stimulated by LPS; assay: Inhibition of the production of TNF in vitro; assay type: cell-based; conditions: mouse peritoneal macrophages, LPS 100 ng/ml, read-out: C150 (μM) TNF
Procedure: The capacity of the compounds according to this invention to inhibit the release of TNF was determined from the peritoneal macrophages of mice stimulated by LPS (Lang, F., Robert, […], Petit, J. Y., J. Pharmacol. Exp. Ther., 275, 171-176, 1995). After an adhesion phase of 2 hours, the cells were treated for 1 hour with the compound to be tested at concentrations ranging between 10^-6 to 10^-9 M (the inhibitor is dissolved in DMSO at 10^-2 M, then at 5.10^-3 M in RPMI 1640 with 5% SVF, then diluted successively by tenths in the same medium), then stimulated by the addition of LPS (100 ng/ml in final concentration). Three hours later, the biological activity of the TNF in the supernatants was determined by a cytotoxicity test using the murine stock L929 in accordance with the operating procedure described by Band, G., Lin, […]., Evans, C. H. (Bioch. Biophys. Acta, 1134, 309-318, 1982). The pg/ml concentration of the TNF of the samples was determined from a murine αTNF standard curve, thus making it possible to define the inhibiting concentration […] of the compounds studied.

[4] = target: T2, 72 kDa gelatinase of human origin (Homo sapiens, UniProt P08253); assay: Activity on gelatinase, synthetic substrate; assay type: biochemical; conditions: performed on synthetic substrate; read-out: C150 (nM) gelatinase 72 kDa**
T2 sequence (P08253 110-660): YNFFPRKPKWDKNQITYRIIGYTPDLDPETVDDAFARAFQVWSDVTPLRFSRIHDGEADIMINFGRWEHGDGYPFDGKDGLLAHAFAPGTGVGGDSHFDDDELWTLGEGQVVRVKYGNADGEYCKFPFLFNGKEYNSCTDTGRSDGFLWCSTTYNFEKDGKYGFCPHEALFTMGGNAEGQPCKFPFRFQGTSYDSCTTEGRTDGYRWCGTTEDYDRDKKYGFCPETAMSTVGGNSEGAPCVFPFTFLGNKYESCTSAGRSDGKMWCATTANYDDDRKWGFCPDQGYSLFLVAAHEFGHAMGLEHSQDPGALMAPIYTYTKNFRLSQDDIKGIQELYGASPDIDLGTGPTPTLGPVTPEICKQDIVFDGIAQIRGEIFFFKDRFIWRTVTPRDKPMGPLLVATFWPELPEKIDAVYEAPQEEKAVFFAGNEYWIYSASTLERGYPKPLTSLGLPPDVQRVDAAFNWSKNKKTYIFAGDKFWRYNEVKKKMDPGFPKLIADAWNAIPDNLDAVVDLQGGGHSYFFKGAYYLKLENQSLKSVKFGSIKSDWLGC
Procedure: The anti-gelatinase activity of the compounds according to the invention was determined on 72 kDa gelatinase of human origin, in accordance with the operating mode described by Knight, C. G., Willenbrock, F., Murphy, G. (FEBS Letters, 296 (3), 263-266, 1992).
The gelatinase was incubated at 37° C. for 10 minutes, and its activity was determined by the increase in fluorescence of the product of Mca-Pro-Leu breakdown of the Mca-Pro-Leu-Gly-Leu-Dpa-Ala-Arg-NH2 synthetic substrate.
The inhibiting concentration C150 for each compound was determined by measurement of the activity of the enzyme in the presence of the inhibitor at a concentration ranging between 10^−7 and 10^−12 M (the inhibitor is dissolved at a concentration of 10^−2 M in DMSO, then diluted successively by tenths in DMSO to 10^−4 M, then in the buffer: Tris, HCl 50 mM+0.05% Brij 35; CaCl2 10 mM; NaCl 0.15 M).

Molecule	IC50 [1] [nM]	IC50 [2] [nM]	IC50 ([3]; Peritoneal macrophage) [µM]	IC50 [4] [nM]	gelatinase 92 kDa* (in %) [2] [%]	IC50 [3] [µM]
CNC(=O)[C@H](Cc1ccc(OC)cc1)NC(=O)[C@](O)(CC(C)C)C(C)N(O)C=O (mixture of isomers) [Example 38, N-2(S)-[1(N-hydroxy-N-formyl)ethyl]2(S)-hydroxy4-methylpentanoyl-o-methyl L-tyrosine methylamide]	130	17	3.2	–	–	–
CNC(=O)[C@H](Cc1ccc(OC)cc1)NC(=O)[C@](O)(C(C)C)[C@H](C)C(=O)NO [Example 7, N-2(S) [-1-(S) hydroxycarbamoyl 1(S)ethyl] 2(S) hydroxy-3 methyl butanoyl O-methyltyrosine N-methylamide]	30	17	2	18	–	–
CC(C)C[C@@](O)(C(=O)NC(Cc1ccc(Cl)cc1)C(=O)NCCN1CCOCC1)C(C)C(=O)NO (some centres unmarked) [Example 12b]	–	–	1.6	–	–	–
CC(C)C[C@@](O)(C(=O)NC(Cc1ccc(Cl)cc1)C(=O)NCCN1CCOCC1)[C@H](C)C(=O)NO (some centres unmarked) [Example 12b]	22	8	–	–	–	–
CCC[C@H](C(=O)NO)[C@@](O)(CC(C)C)C(=O)N[C@@H](Cc1ccc(Cl)cc1)C(=O)NC [Example 17, N-2(S) hydroxy 3(S) hydroxycarbamoyl 2(S) 1(2-methyl) propyl hexanoyl L-4-chlorophenylalanine N-methyl amide]	–	1.6	0.27	1.6	–	–
CC(C)C[C@@](O)(C(=O)N[C@@H](Cc1ccc(Cl)c(Cl)c1)C(=O)NCCOCCO)[C@H](C)C(=O)NO [Example 19, N-2(S)[1(S)hydroxycarbamoyl-1 ethyl]-2 (S) hydroxy 4-methylpentanoyl L-3,4 dichlorophenylalanine N-hydroxyethyloxyethylamide]	7	0.001	0.5	0.7	–	–
CSCCNC(=O)[C@H](Cc1ccc(Cl)c(Cl)c1)NC(=O)[C@](O)(CC(C)C)[C@H](C)C(=O)NO [Example 21, N-2(S)[1(S)hydroxycarbamoyl-1 ethyl]-2(S) hydroxy-4-methylpentanoyl L-3,4-dichlorophenylalanine N-(2-methylthio-1-ethyl) amide]	5	–	0.4	–	83	–
CNC(=O)[C@H](Cc1cccc(Cl)c1)NC(=O)[C@](O)(CC(C)C)[C@H](C)C(=O)NO [Example 22, N-2(S)-[1(S) hydroxycarbamoyl-1 ethyl]-2(S) hydroxy-4-methylpentanoyl L-3-chlorophenylalanine N-methylamide]	2.4	–	0.13	–	–	–
COCCOCCNC(=O)[C@H](Cc1ccc(Cl)c(Cl)c1)NC(=O)[C@](O)(CC(C)C)[C@H](C)C(=O)NO [Example 23, N-2(S) [1(S) hydroxycarbamoyl-1 ethyl]-2(S) hydroxy 4-methyl pentanoyl L-3,4-dichlorophenylalanine N-(2-(2-methoxyethoxy)1-ethyl)amide]	–	–	0.37	0.14	60	–
CNC(=O)[C@H](Cc1c[nH]c2ccccc12)NC(=O)[C@](O)(CC(C)C)[C@H](C)C(=O)NO [Example 26, N-2-(S)[1(S) hydroxycarbamoyl-1 ethyl]-2(S)hydroxy-4-methylpentanoyl L-tryptophan N-methylamide]	–	0.6	4.4	–	–	–
CC(C)C[C@@](O)(C(=O)N[C@@H](Cc1ccc(Cl)cc1)C(=O)NCCC#N)[C@H](C)C(=O)NO [Example 27, N-2(S)[1(S) hydroxycarbamoyl-1 ethyl]-2(S)hydroxy-4-methylpentanoyl L-4-chlorophenylalanine N-(2-cyano-1-ethyl) amide]	–	1.7	–	–	–	–
CC(C)C[C@@](O)(C(=O)N[C@@H](Cc1ccc(Cl)cc1)C(=O)NCC/C(N)=N/O)[C@H](C)C(=O)NO [Example 28, N-2(S)[1(S) hydroxycarbamoyl-1 ethyl]-2(S)hydroxy-4-methylpentanoyl L-4-chlorophenylalanine N-oximino-2-amino-2-ethylamide]	26	1.6	–	–	–	–
C[C@H](C(=O)NO)[C@@](O)(CCCc1ccccc1)C(=O)N[C@@H](CC1CCCCC1)C(=O)NCCc1ccccc1 [Example 32, N-2-(S)[1(S)(hydroxycarbamoyl)ethyl]2(S) hydroxy 5-phenyl pentanoyl L-3-cyclohexylalanine 2 phenylethylamide]	–	1.9	> 1	0.8	–	–
CC(C)C[C@@](O)(C(=O)N[C@@H](Cc1ccc(Cl)c(Cl)c1)C(=O)NCCN1CCOCC1)[C@H](C)C(=O)NO [Example 35b]	4	1.1	0.3	–	–	–
CNC(=O)[C@H](Cc1ccc(OC)cc1)NC(=O)[C@](O)(CC(C)C)[C@H](C)S [Example 36, N-2(R)-[(1-thioethyl)] 2(R) hydroxy 4-methyl pentanoyl-o-methyl-L-tyrosine methylamide]	500	23	3	–	–	–
CNC(=O)[C@H](Cc1ccc(Cl)c(Cl)c1)NC(=O)[C@@](O)(CS)CC(C)C [Example 37]	> 1000	70	2	–	–	–
CNC(=O)[C@@H](NC(=O)[C@H](CC(C)C)[C@H](O)C(=O)NO)C(C)(C)C [reference compound]	–	–	0.14	–	–	–
N-2(S)[1(S)-hydroxycarbamoyl-1 (S) ethyl]-2 (S)-hydroxy-4-methyl pentanoyl L-(3,4)-dichlorophenylalanine N-(2-(4-morpholino)1-ethyl) amide [Example 35a]	6	0.38	–	–	–	0.86
N-2-(S)[(S)-hydroxy-(S)hydroxycarbamoylmethyl)-2(S)-hydroxy-4-methyl]pentanoyl-o-methyl-3-methyl-(S) valine N-methylamide [Example 34]	–	34	–	–	–	–
